The text below walks through data of ChEMBL document CHEMBL4673183, “Hit-to-lead optimization of a benzene sulfonamide series for potential antileishmanial agents” (RSC Med Chem, 2020).

Data set [1] deals with Peritoneal macrophage. Kind of data set: cells. Conditions: Mus musculus, Swiss, 120 h, read-out: pIC50 (converted).
A short description of data set [2]: in vitro. The settings on record: mouse, plasma.

Consider `N#Cc1ccccc1S(=O)(=O)N(Cc1ccccc1)Cc1ccccc1`, for which the IC50 in data set [1] was above 64.6 µM. In the case of `COCCN(Cc1ccc(F)cc1)S(=O)(=O)c1cc(C#N)ccc1OC`, the IC50 in data set [1] was above 64.6 µM.

As for `COc1ccc(C(=O)O)cc1S(=O)(=O)N(Cc1ccccc1)Cc1ccccc1`, in data set [1], the IC50 is above 64.6 µM. Take `CS(=O)(=O)c1ccccc1S(=O)(=O)N(Cc1ccccc1)Cc1ccccc1`: the IC50 in data set [1] was above 64.6 µM. Same read-out and setting: the result for `COc1ccc(S(=O)(=O)N(Cc2ccccc2)Cc2ccccc2)cc1` reads above 64.6 µM; that for `COc1ccc(S(N)(=O)=O)cc1S(=O)(=O)N(Cc1ccccc1)Cc1ccccc1`, above 64.6 µM. Take `COc1ncccc1S(=O)(=O)N(Cc1ccccc1)Cc1ccccc1`: the IC50 in data set [1] is 64.6 µM. `COc1ccc(OC)c(S(=O)(=O)N(Cc2ccc(F)cc2)c2ccc(F)cc2)c1`: the IC50 in data set [1] is above 64.6 µM.

As for `COc1ccc(C(N)=O)cc1S(=O)(=O)N(Cc1ccccc1)Cc1ccccc1`, in data set [1], the IC50 was above 64.6 µM. Same read-out and setting: the value for `COCCOCN1CNc2cc(OC)c(S(=O)(=O)N(Cc3ccccc3)Cc3ccccc3)cc2S1(=O)=O` was above 64.6 µM.

For `COc1ccc(OC)c(S(=O)(=O)N(Cc2ccc(F)cc2)Cc2nc(C)no2)c1`, the IC50 in data set [1] was above 64.6 µM. Regarding `COc1ccc(OC)c(S(=O)(=O)N(Cc2ccccc2)Cc2ccccc2)c1`, in data set [1], the IC50 was above 64.6 µM.

For `COc1ccc(CN2CCOCC2)cc1S(=O)(=O)N(Cc1ccc(F)cc1)Cc1ccc(F)cc1`, the IC50 in data set [1] is above 64.6 µM.

For `COc1ccc([S+](C)[O-])cc1S(=O)(=O)N(Cc1ccccc1)Cc1ccccc1` (stereo not drawn), the IC50 in data set [1] is above 64.6 µM. For `COc1ccc(C(=O)N2CCOCC2)cc1S(=O)(=O)N(Cc1ccc(F)cc1)Cc1ccc(C(F)(F)F)nc1`, the IC50 in data set [1] was above 64.6 µM. The molecule also displayed a fraction remaining at 6 h in data set [2] of 22%. `Cn1cccc(S(=O)(=O)N(Cc2ccc(F)cc2)Cc2ccc(F)cc2)c1=O`: the IC50 in data set [1] was 64.6 µM. Consider `COc1ccc(N2CCOCC2)cc1S(=O)(=O)N(Cc1ccc(F)cc1)Cc1ccc(F)cc1`, for which, in data set [1], the IC50 was above 64.6 µM.

Take `COc1ccc(C#N)cc1S(=O)(=O)N(Cc1ccc(F)cc1)C1CCOCC1`: the IC50 in data set [1] was above 64.6 µM. On the same count and under the same terms, the value for `COc1ccc(C(=O)N2CCOCC2)cc1S(=O)(=O)N(Cc1ccc(F)cc1)CC(C)C` was above 64.6 µM; that for `COc1ccc(C(=O)NC2COC2)cc1S(=O)(=O)N(Cc1ccc(F)cc1)Cc1ccc(F)cc1` was above 64.6 µM. For the molecule `COc1ccc(C#N)cc1S(=O)(=O)N(Cc1ccccc1)Cc1cnc(C(F)(F)F)nc1`, the IC50 in data set [1] is above 64.6 µM. For the molecule `COc1ccc(C#N)cc1S(=O)(=O)N(Cc1ccc(C(F)(F)F)nc1)Cc1ccc(C(F)(F)F)nc1`, the IC50 in data set [1] was above 64.6 µM. In the case of `COc1ccc(C#N)cc1S(=O)(=O)N(Cc1ccccc1)Cc1ccccc1`, in data set [1], the IC50 is above 64.6 µM. As to `COc1ccc(S(C)(=O)=O)cc1S(=O)(=O)N(Cc1ccc(F)cc1)Cc1ccc(F)cc1`, the IC50 in data set [1] is above 64.6 µM. Take `COc1ccc(C(=O)N2CCOCC2)cc1S(=O)(=O)N(Cc1ccc(C(F)(F)F)nc1)CC(C)(C)C`: the IC50 in data set [1] is above 64.6 µM. `COc1ccc(C(=O)N2CCOCC2)cc1S(=O)(=O)N(Cc1ccccc1)Cc1cnc(C(F)(F)F)nc1`: the IC50 in data set [1] is above 64.6 µM. Also, the fraction remaining at 6 h in data set [2] was 42%.

On to `COc1ccc(C(=O)N2CCOCC2)cc1S(=O)(=O)N(Cc1ccccc1)CC(C)(C)C`, for which, in data set [1], the IC50 is above 64.6 µM. `COc1ccc(OC)c(S(=O)(=O)N(Cc2ccc(F)cc2)Cc2cnc(OC)nc2OC)c1`: in data set [1], the IC50 is above 64.6 µM. `O=S(=O)(c1cc(F)ccc1F)N(Cc1ccc(F)cc1)Cc1ccc(F)cc1`: the IC50 in data set [1] is above 64.6 µM.

On to `COc1ccccc1S(=O)(=O)N(Cc1ccccc1)Cc1ccccc1`, for which, in data set [1], the IC50 is above 64.6 µM. Still for that read-out and setting: the value for `COCCN(Cc1ccc(F)cc1)S(=O)(=O)c1cc(C(=O)N2CCOCC2)ccc1OC` was above 64.6 µM.
